For one assay, the target named is T1, rat liver BGL (Rattus norvegicus, UniProt A0A0G2JVP8).
T1 construct: For this purpose, BGLs were purified from rat liver and kidney tissues; from tissue; host or cells: rat liver
T1 sequence (A0A0G2JVP8 1-469): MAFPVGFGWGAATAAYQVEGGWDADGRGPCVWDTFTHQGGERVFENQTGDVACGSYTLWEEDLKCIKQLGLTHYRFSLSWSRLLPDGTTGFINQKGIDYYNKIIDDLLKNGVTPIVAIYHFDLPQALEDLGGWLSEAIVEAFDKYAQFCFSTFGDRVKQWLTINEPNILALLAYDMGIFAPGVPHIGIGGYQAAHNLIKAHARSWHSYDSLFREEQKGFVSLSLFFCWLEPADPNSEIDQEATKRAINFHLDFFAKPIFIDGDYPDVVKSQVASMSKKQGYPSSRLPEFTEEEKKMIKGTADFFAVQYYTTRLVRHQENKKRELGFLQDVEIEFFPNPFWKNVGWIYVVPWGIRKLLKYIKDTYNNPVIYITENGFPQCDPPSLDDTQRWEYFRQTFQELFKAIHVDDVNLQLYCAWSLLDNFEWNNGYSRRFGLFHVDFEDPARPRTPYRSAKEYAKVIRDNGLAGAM
Kind of assay: In vitro inhibition of β-glucosidase purified from rat liver (p-NPG substrate). The format is biochemical. Particulars: for effect on rat liver BGL activity: tested concentration ranges 5–250 mM depending on antibiotic. As for the experimental part: (§1) Rat liver and kidney BGL activities were determined spectrophotometrically using a ThermoFisher Scientific Multiskan™ FC microplate (Thermo Fisher Scientific, Waltham, MA, USA). p-NPG dissolved in 50 mM of pH 5.5 Na–Ac buffer was used as the substrate. In this method, enzyme activity was determined by photometrically measuring the determination of p-nitrophenol (p-NP) released in the presence of BGLs spectrophotometrically at 405 nm. Calculations were made with the standard curve of p-NP (Cat. No. 241326, Sigma) prepared at 405 nm. One enzyme unit (EU) was defined as the amount of μmol p-nitrophenol released per minute in the reaction medium under the specified experimental conditions.
(§2) The half-maximal inhibitory concentration (IC50) of antibiotics was determined using a constant concentration of p-NPG of 1.75 mM. At least ten different concentration ranges of each antibiotic were tested to evaluate the in vitro effects of ampicillin (5–250 mM), amoxicillin–clavulanate (5–70 mM), cefuroxime (5–150 mM), cefazolin sodium (10–165 mM), ceftriaxone (10–160 mM), and gentamicin (5–50 mM). Enzyme activity was measured in the presence of different antibiotic concentrations, and BGL activity in the medium without antibiotics, which was accepted as the control group, was determined as 100% reference value. Enzyme activity results were expressed as % activity and the inhibitory concentration (IC50) that reduced enzyme activity by 50% was calculated using GraphPad Prism software. All experiments were performed in three replicates for each antibiotic concentration.
(§3) Lineweaver–Burk double-reciprocal plots were used to determine the inhibitory effect of antibiotics and the inhibition mechanisms. The curve obtained when there was no inhibitor in the reaction medium was accepted as the control (I0); the intersection points of the control curve with the lines drawn in the presence of the inhibitor at two different concentrations were analyzed. In line with these intersection points, the relevant inhibition types were determined, and the inhibitory constants (Ki) of the inhibitors were calculated.

The target in another assay is T2, rat kidney BGL (Rattus norvegicus, UniProt A0A0G2JVP8).
T2 construct: For this purpose, BGLs were purified from rat liver and kidney tissues; from tissue; host or cells: rat kidney
T2 sequence (A0A0G2JVP8 1-469): T1 sequence (A0A0G2JVP8 1-469)
Description: In vitro inhibition of β-glucosidase purified from rat kidney (p-NPG substrate). The format is biochemical. Conditions: for Ki / inhibition type / IC50: Kidney BGL; for Ki: Lineweaver–Burk plots; for inhibition type: Lineweaver–Burk, NI: No observed inhibition; for IC50: p-NPG 1.75 mM, GraphPad Prism; for effect on rat kidney BGL activity: tested concentration ranges 5–250 mM depending on antibiotic. The method, then: as §1, §2, §3

The test system of assay [1] is glutathione reductase (GR) purified from mouse kidney tissue. More on the design: method as in PMID 32196862. Conditions: cited from earlier work.
For assay [2], the system named is glutathione reductase (GR) purified from mouse liver. More on the design: method as in PMID 32196862. Conditions: cited from earlier work.
The test system of assay [3] is glucose-6-phosphate dehydrogenase (G6PD) purified from human erythrocytes. The arrangement: method as in PMID 10712835. Particulars: cited from earlier work; for IC50: G6PD purified from human erythrocytes.
The subject of assay [4] is glucose-6-phosphate dehydrogenase (G6PD) purified from rat lung tissue. More on the design: method as in PMID 26758606. Conditions: cited from earlier work.
Assay [5] has as its system 6-phosphogluconate dehydrogenase (6PGD) purified from rat lung tissue. The arrangement: method as in PMID 26758606. Particulars: cited from earlier work.
Assay [6] has as its system glutathione reductase (GR) purified from rat lung tissue. The arrangement: method as in PMID 26758606. Conditions: cited from earlier work.
In assay [7] the test system is glutathione reductase (GR) purified from human erythrocytes. More on the design: method as in PMID 15895687. Particulars: cited from earlier work.
In assay [8] the test system is G6PD purified from sheep erythrocytes. The arrangement: method as in PMID 12530481. Particulars: cited from earlier work.

This is an account of results in article PMC12189931, “In Vitro Effects of Some Antibiotics on Purified β-Glucosidases from Rat Liver and Kidney Tissues” (Antibiotics, 2025).

Broadly, the Ki is a measure of affinity in units of concentration, obtained from inhibition or displacement. A higher Ki goes with lower affinity. A word on the IC50: it is the concentration that gives 50% inhibition.

“And” between values parts separate entries of the source, which are not always exact repeats. Identical values can stand only once. “Also recorded” adds a separate entry of the source.

Regarding `CC1(C)S[C@@H]2[C@H](NC(=O)[C@H](N)c3ccccc3)C(=O)N2[C@H]1C(=O)O` [Ampicillin], the “loss in liver BGL activity” value on rat liver BGL (40 mM ampicillin in the medium) amounted to 10%. Besides, the Ki was determined as 14.3 ± 3.35 mM at rat liver BGL (Liver BGL, Lineweaver–Burk plots) and 28.4 ± 6.35 mM on rat kidney BGL. In addition, the “inhibition type” value against rat liver BGL (Liver BGL, Lineweaver–Burk, NI: No observed inhibition) was “competitively; also recorded: Competitive”; against rat kidney BGL it was “noncompetitively; also recorded: Noncompetitive”. Also, the IC50 is 70 mM and 69.6 mM against rat liver BGL (Liver BGL, p-NPG 1.75 mM, GraphPad Prism); 25 mM and 25.3 mM on rat kidney BGL.
Regarding `Cc1nnc(SCC2=C(C(=O)O)N3C(=O)[C@@H](NC(=O)Cn4cnnn4)[C@H]3SC2)s1` [Cefazolin sodium], the “effect on rat liver BGL activity” value at rat liver BGL is “did not show a significant inhibitory effect”. Also, the figures for the “inhibition type” value (at rat kidney BGL; at rat kidney BGL (listed as cefazolin sodium); in [3] (human erythrocyte G6PD)) were “Noncompetitive”, “noncompetitively” and “noncompetitive”, respectively. For the same compound, on rat kidney BGL, the IC50 came out at 98.8 mM. Further, the “inhibition / inhibition type” value in assay [1] and in [2] was “did not inhibit” throughout.
In the case of `CO/N=C(\C(=O)N[C@@H]1C(=O)N2C(C(=O)O)=C(CSc3nc(=O)c(=O)[nH]n3C)CS[C@H]12)c1csc(N)n1` [Ceftriaxone], the “effect on rat liver BGL activity” value on rat liver BGL is on record as “did not show a significant inhibitory effect”. For the same compound, the “effect on rat kidney BGL activity” value at rat kidney BGL is “did not reduce kidney BGL activity; also recorded: did not significantly inhibit; also recorded: did not exhibit inhibitory effects”.
Regarding `CO/N=C(\C(=O)N[C@@H]1C(=O)N2C(C(=O)O)=C(COC(N)=O)CS[C@H]12)c1ccco1` [Cefuroxime], the “effect on rat liver BGL activity” value at rat liver BGL is listed as “did not show a significant inhibitory effect”. Affinity on rat kidney BGL was put at a Ki of 18.7 ± 12.7 mM. The “inhibition type” value against rat kidney BGL was “Uncompetitive”; in assay [4], “noncompetitively”; in assay [5], “noncompetitively”; in assay [6], “noncompetitively”. On rat kidney BGL, this compound showed an IC50 of 76.9 mM.
`CNC(C)C1CCC(N)C(OC2C(N)CC(N)C(OC3OCC(C)(O)C(NC)C3O)C2O)O1` (centres unmarked) [Gentamicin]: the “effect on rat liver BGL activity” value at rat liver BGL (listed as gentamicin) is on record as “did not show a significant inhibitory effect; also recorded: increased enzyme activity; also recorded: no inhibitory effect”. For the same compound, the “effect on rat kidney BGL activity” value on rat kidney BGL was “did not reduce kidney BGL activity”; at rat kidney BGL (listed as gentamicin), “did not significantly inhibit; also recorded: did not exhibit inhibitory effects; also recorded: no effect on enzyme activity”. Also, the “inhibition / inhibition type” value in assay [1] is “did not inhibit”; in assay [2], “noncompetitive”. Besides, the “effect on enzyme activity” value in [7] is given as “increase the activity”. The inhibition type entry in assay [4], in assay [5] and in [6] was “competitively” throughout.
Regarding `CC1(C)S[C@@H]2[C@H](NC(=O)[C@H](N)c3ccc(O)cc3)C(=O)N2[C@H]1C(=O)O` [amoxicillin], in assay [1], the IC50 was 86 mM. The “inhibition / inhibition type” value in [1] is reported as “noncompetitive”; in assay [2], “competitive”.
Regarding `CO/N=C(\C(=O)N[C@@H]1C(=O)N2C(C(=O)O)=C(COC(N)=O)CS[C@H]12)c1ccco1` [sodium cefuroxime], in assay [3], the IC50 is 6.7 mM.
For gentamicin sulfate, the IC50 in assay [3] was 12 mM. The inhibition type entry in [8] is recorded as “noncompetitively”.
